Data as given in ChEMBL document CHEMBL3046817, “The synthesis and investigation of the antimicrobial activity of some new phenylselanyl-1-(toluene-4-sulfonyl)-1H-tetrazole derivatives” (2009).
Active and inactive are the calls of the source. The rule behind the calls is not given here.

What was measured:
[1] = tested on: Yersinia enterocolitica; assay: Antimicrobial activity against Yersinia enterocolitica ATCC 1501 at 25 ug/disk measured after overnight incubation by disk diffusion method; type: functional; conditions: for zone of inhibition at 25 µg/disc: read-out: IZ
[2] = tested on: Staphylococcus aureus; assay: Antimicrobial activity against Staphylococcus aureus ATCC 25923 at 25 ug/disk measured after overnight incubation by disk diffusion method; type: functional; conditions: for zone of inhibition at 25 µg/disc: read-out: IZ
[3] = tested on: Salmonella enteritidis; assay: Antimicrobial activity against Salmonella enterica subsp. enterica serovar Enteritidis ATCC 13076 at 25 ug/disk measured after overnight incubation by disk diffusion method; type: functional; conditions: read-out: IZ
[4] = tested on: Escherichia coli; assay: Antimicrobial activity against Escherichia coli ATCC 11230 at 25 ug/disk measured after overnight incubation by disk diffusion method; type: functional; conditions: read-out: IZ
[5] = tested on: Pseudomonas aeruginosa; assay: Antimicrobial activity against Pseudomonas aeruginosa ATCC 27853 at 25 ug/disk measured after overnight incubation by disk diffusion method; type: functional
[6] = tested on: Bacillus cereus; assay: Antimicrobial activity against Bacillus cereus RSKK 863 at 25 ug/disk measured after overnight incubation by disk diffusion method; type: functional; conditions: for zone of inhibition at 25 µg/disc: read-out: IZ
[7] = tested on: Listeria monocytogenes; assay: Antimicrobial activity against Listeria monocytogenes ATCC 7644 at 25 ug/disk measured after overnight incubation by disk diffusion method; type: functional
[8] = tested on: Yersinia enterocolitica; assay: Antimicrobial activity against Yersinia enterocolitica ATCC 1501 measured after overnight incubation by disk diffusion method; type: functional
[9] = tested on: Staphylococcus aureus; assay: Antimicrobial activity against Staphylococcus aureus ATCC 25923 measured after overnight incubation by disk diffusion method; type: functional, organism-based
[10] = tested on: Salmonella enteritidis; assay: Antimicrobial activity against Salmonella enterica subsp. enterica serovar Enteritidis ATCC 13076 measured after overnight incubation by disk diffusion method; type: functional
[11] = tested on: Listeria monocytogenes; assay: Antimicrobial activity against Listeria monocytogenes ATCC 7644 measured after overnight incubation by disk diffusion method; type: functional
[12] = tested on: Pseudomonas aeruginosa; assay: Antimicrobial activity against Pseudomonas aeruginosa ATCC 27853 measured after overnight incubation by disk diffusion method; type: functional
[13] = tested on: Bacillus cereus; assay: Antimicrobial activity against Bacillus cereus RSKK 863 measured after overnight incubation by disk diffusion method; type: functional, organism-based
[14] = tested on: Escherichia coli; conditions: ATCC 11230
Description: Antimicrobial activity against Escherichia coli ATCC 11230 measured after overnight incubation by disk diffusion method

| Compound | inhibition zone (IZ) [1] | inhibition zone (IZ) [2] | zone of inhibition at 25 µg/disc [3] [mm] | zone of inhibition at 25 µg/disc [4] [mm] | inhibition zone (IZ) [5] | zone of inhibition at 25 µg/disc [6] [mm] | zone of inhibition at 25 µg/disc ([7]; read-out: IZ) [mm] | zone of inhibition at 25 µg/disc [1] [mm] | zone of inhibition at 25 µg/disc [2] [mm] | inhibition zone (IZ) [6] | inhibition zone (IZ) [7] | inhibition zone (IZ) [8] | inhibition zone (IZ) [9] | inhibition zone (IZ) [10] [mm] | inhibition zone (IZ) [11] [mm] | inhibition zone (IZ) [12] [mm] | inhibition zone (IZ) [13] | zone of inhibition at 25 µg/disc ([5]; read-out: IZ) [mm] | IZ [14] |
| --- | --- | --- | --- | --- | --- | --- | --- | --- | --- | --- | --- | --- | --- | --- | --- | --- | --- | --- | --- |
| Cc1ccc([Se]c2nnnn2S(=O)(=O)c2ccc(C)cc2)cc1 | inactive | inactive | 3.2 | 4.6 | inactive | 2.8 | 5 | – | – | – | – | – | – | – | – | – | – | – | – |
| Cc1ccc(S(=O)(=O)n2nnnc2[Se]c2ccc(Cl)cc2)cc1 | – | – | 7.8 | 3.2 | inactive | – | – | 3.4 | 4.8 | inactive | inactive | – | – | – | – | – | – | – | – |
| Cc1ccc(S(=O)(=O)n2nnnc2[Se]c2ccccc2C)cc1 | inactive | – | 2.8 | 5.4 | inactive | 4.4 | – | – | 5.2 | – | inactive | – | – | – | – | – | – | – | – |
| Cc1cc(NS(=O)(=O)c2ccc(N)cc2)no1 [SULFAMETHOXAZOLE] | – | – | – | – | – | – | – | – | – | – | – | inactive | inactive | 7.4 | 10.9 | 5.5 | inactive | – | – |
| Cc1ccc(S(=O)(=O)n2nnnc2[Se]c2ccccc2Cl)cc1 | – | – | 7 | 7.4 | – | 3.2 | – | 5.6 | 4.2 | – | inactive | – | – | – | – | – | – | 4.4 | – |
| Cc1ccc(S(=O)(=O)n2nnnc2[Se]c2ccc(I)cc2)cc1 | inactive | – | 5.8 | 3.2 | inactive | – | – | – | 8.2 | inactive | inactive | – | – | – | – | – | – | – | – |
| Cc1ccnc(NS(=O)(=O)c2ccc(N)cc2)n1 [SULFAMERAZINE] | – | – | – | – | – | – | – | – | – | – | – | 6.1 mm | inactive | 6.6 | 5.1 | 4.4 | inactive | – | inactive |
| Cc1ccc(S(=O)(=O)n2nnnc2[Se]c2ccc(Br)cc2)cc1 | inactive | – | 8.2 | 5.4 | inactive | – | – | – | 6.2 | inactive | inactive | – | – | – | – | – | – | – | – |
